Like-named read-outs stand apart in the source and are kept apart here.
Assays:
[1] = test system: human multiple myeloma cell line, OPM-2; test: Cell viability assay (OPM-2 10 FBS), CellTiter-Glo; type: cell-based
Outline: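 OPM-2 cells at 3000 cells/well in RPMI 1640 with 10% FBS were exposed to serially diluted compounds for 16 h at 37 °C, 5% CO2.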

[2] = target: recombinant human Mcl-1 (residues 171-327) / Bim interaction (Homo sapiens (Human), UniProt Q07820); test: biochemical; type: binding; conditions: read-out: Mcl-1 HTRF IC50
Chain of recombinant human Mcl-1 (residues 171-327) / Bim interaction (Q07820 171-327): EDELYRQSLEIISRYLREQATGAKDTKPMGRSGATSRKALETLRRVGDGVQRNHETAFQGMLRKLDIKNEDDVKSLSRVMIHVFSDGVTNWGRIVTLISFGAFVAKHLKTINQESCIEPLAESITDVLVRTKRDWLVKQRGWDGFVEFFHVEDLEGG

[3] = Homo sapiens, OPM-2, 16 h, read-out: OPM-2 10% FBS IC50 IP, OPM-2 cells, 10% FBS, 16 h incubation
[4] = 0.1 nM Mcl-1(171-327), 0.05 nM biotin-Bim (51-76)
[5] = read-out: OPM-2 10% FBS IC50 IP, OPM-2 cells, 10% FBS, 16 h, CellTiter-Glo
[6] = TR-FRET, Mcl-1(171-327) / biotin-Bim (51-76)
[7] = Homo sapiens, OPM-2, 16 h, read-out: OPM-2 10% FBS IC50 IP, OPM-2 cells, 10% FBS, 16 h, CellTiter-Glo

CCCN1CCN(C[C@@]2(OC)/C=C/C[C@H](C)[C@@H](C)S(=O)(=O)NC(=O)c3ccc4c(c3)N(C[C@@H]3CC[C@H]32)C[C@@]2(CCCc3cc(Cl)ccc32)CO4)CC1 [Example 97, (1S,3′R,6′R,7′R,8′E,11′S,12′R)-6-chloro-7′-methoxy-11′,12′-dimethyl-7′-((4-propyl-1-piperazinyl)methyl)-3,4-dihydro-2H,15′H-spiro[naphthalene-1,22′-[20]oxa[13]thia[1,14]diazatetracyclo [14.7.2.0~3,6~.0~19,24~]pentacosa[8,16,18,24]tetraen]-15′-one 13′,13′-dioxide]
IC50 [1, 3]: 228 nM | IC50 [2, 4]: 0.299 nM

C[C@@H]1[C@@H](C)CCC[C@](O)(CC(=O)N(C)C(C)(C)C)[C@@H]2CC[C@H]2CN2C[C@@]3(CCCc4cc(Cl)ccc43)COc3ccc(cc32)C(=O)NS1(=O)=O (single isomer, unassigned) [Example 100143]
IC50 [1, 5]: 3270 nM | IC50 [2, 6]: 1.87 nM

COCCN(C)C(=O)C[C@]1(OC)/C=C/C[C@H](C)[C@@H](C)S(=O)(=O)NC(=O)c2ccc3c(c2)N(C[C@@H]2CC[C@H]21)C[C@@]1(CCCc2cc(Cl)ccc21)CO3 [Example 100005, 2-((1 S,3′R,6′R,7′S,8′E,11′S, 12′R)-6-chloro-7′-methoxy-11′,12′-dimethyl-13′,13′-dioxido-15′-oxo-3,4-dihydro-2H-spiro[naphthalene-1,22′-[20]oxa[13]thia[1,14]diazatetracyclo[14.7.2.0-3,6˜.0˜19,24˜]pentacosa[8,16,18,24]tetraen]-7′-yl)-N-(2-methoxyethyl)-N-methylacetamide]
IC50 [1, 7]: 62 nM | IC50 [2, 6]: 0.091 nM

C[C@@H]1[C@@H](C)C/C=C/[C@@](O)(C2SCCCS2)[C@@H]2CC[C@H]2CN2C[C@@]3(CCCc4cc(Cl)ccc43)COc3ccc(cc32)C(=O)NS1(=O)=O [Example 100260, (1S,3′R,6′R,7′S,8′E,11′S,12′R)-6-chloro-7′-(1,3-dithian-2-yl)-7′-hydroxy-11′,12′-dimethyl-3,4-dihydro-2H,15′H-spiro[naphthalene-1,22′-[20]oxa[13]thia[1,14]diazatetracyclo [14.7.2.0~3,6~.0~19,24~]pentacosa[8,16,18,24]tetraen]-15′-one 13′,13′-dioxide]
IC50 [1, 7]: 94 nM | IC50 [2, 6]: 0.408 nM

C=CC[C@]1(O)CCC[C@H](C)[C@@H](C)S(=O)(=O)NC(=O)c2ccc3c(c2)N(C[C@@H]2CC[C@H]21)C[C@@]1(CCCc2cc(Cl)ccc21)CO3 (single isomer, unassigned) [Example 100266]
IC50 [1, 5]: 571 nM | IC50 [2, 6]: 0.292 nM

C[C@@H]1[C@@H](C)CCC[C@@](O)(Cc2ccncn2)[C@@H]2CC[C@H]2CN2C[C@@]3(CCCc4cc(Cl)ccc43)COc3ccc(cc32)C(=O)NS1(=O)=O [Example 100114, (1S,3′R,6′R,7′R,11′S,12′R)-6-chloro-7′-hydroxy-11′,12′-dimethyl-7′-(4-pyrimidinylmethyl)-3,4-dihydro-2H,15′H-spiro[naphthalene-1,22′-[20]oxa[13]thia[1,14]diazatetracyclo [14.7.2.0~3,6~.0~19,24~]pentacosa[16,18,24]trien]-15′-one 13′,13′-dioxide]
IC50 [1, 5]: 491 nM | IC50 [2, 6]: 1.05 nM

CO[C@@]1(C2SCCCS2)CCC[C@H](C)[C@@H](C)S(=O)(=O)NC(=O)c2ccc3c(c2)N(C[C@@H]2CC[C@H]21)C[C@@]1(CCCc2cc(Cl)ccc21)CO3 [Example 100249, (1S,3′R,6′R,7′S,11′S,12′R)-6-chloro-7′-(1,3-dithian-2-yl)-7′-methoxy-11′,12′-dimethyl-3,4-dihydro-2H,15′H-spiro[naphthalene-1,22′-[20]oxa[13]thia[1,14]diazatetracyclo [14.7.2.0~3,6~.0~19,24~]pentacosa[16,18,24]trien]-15′-one 13′,13′-dioxide]
IC50 [1, 7]: 2270 nM | IC50 [2, 6]: 2.99 nM

C[C@@H]1[C@@H](C)CCC[C@@](O)(C#CCCN2CCOCC2)[C@@H]2CC[C@H]2CN2C[C@@]3(CCCc4cc(Cl)ccc43)COc3ccc(cc32)C(=O)NS1(=O)=O [Example 100371, (1S,3′R,6′R,7′S,11′S,12′R)-6-chloro-7′-hydroxy-11′,12′-dimethyl-7′-(4-(4-morpholinyl)-1-butyn-1-yl)-3,4-dihydro-2H,15′H-spiro[naphthalene-1,22′-[20]oxa[13]thia[1,14]diazatetracyclo [14.7.2.0~3,6~.0~19,24~]pentacosa[16,18,24]trien]-15′-one 13′,13′-dioxide]
IC50 [1, 5]: 307 nM | IC50 [2, 6]: 0.39 nM

CO[C@]1(CN2CCN3CCN(S(C)(=O)=O)C[C@@H]3C2)/C=C/C[C@H](C)[C@@H](C)S(=O)(=O)NC(=O)c2ccc3c(c2)N(C[C@@H]2CC[C@H]21)C[C@@]1(CCCc2cc(Cl)ccc21)CO3 (single isomer, unassigned) [Example 237]
IC50 ([1]; read-out: OPM-2 10% FBS IC50 IP, OPM-2 cells, 10% FBS, 16 h incubation): 64 nM | IC50 [2, 4]: 0.13 nM

C[C@@H]1[C@@H](C)C/C=C/[C@@](O)(c2nccn2C)[C@@H]2CC[C@H]2CN2C[C@@]3(CCCc4cc(Cl)ccc43)COc3ccc(cc32)C(=O)NS1(=O)=O [Example 100199, (1S,3′R,6′R,7′S,8′E,11′S,12′R)-6-chloro-7′-hydroxy-11′,12′-dimethyl-7′-(1-methyl-1H-imidazol-2-yl)-3,4-dihydro-2H,15′H-spiro[naphthalene-1,22′-[20]oxa[13]thia[1,14]diazatetracyclo [14.7.2.0~3,6~.0~19,24~]pentacosa[8,16,18,24]tetraen]-15′-one 13′,13′-dioxide]
IC50 [1, 7]: 148 nM | IC50 [2, 6]: 0.166 nM

CO[C@@]1(C)/C=C/C[C@H](C)[C@@H](CCOS(C)(=O)=O)S(=O)(=O)NC(=O)c2ccc3c(c2)N(C[C@@H]2CC[C@H]21)C[C@@]1(CCCc2cc(Cl)ccc21)CO3 (single isomer, unassigned) [Example 100598]
IC50 [1, 5]: 188 nM | IC50 [2, 6]: 0.077 nM

CCO[C@@]1(CN2CCN(CC)CC2)/C=C/C[C@H](C)[C@@H](C)S(=O)(=O)NC(=O)c2ccc3c(c2)N(C[C@@H]2CC[C@H]21)C[C@@]1(CCCc2cc(Cl)ccc21)CO3 [Example 112, (1S,3′R,6′R,7′S,8′E,11′S,12′R)-6-chloro-7′-ethoxy-7′-((4-ethyl-1-piperazinyl)methyl)-11′,12′-dimethyl-3,4-dihydro-2H,15′H-spiro[naphthalene-1,22′-[20]oxa[13]thia[1,14]diazatetracyclo [14.7.2.0~3,6~.0~19,24~]pentacosa[8,16,18,24]tetraen]-15′-one 13′,13′-dioxide]
IC50 [1, 3]: 654 nM | IC50 [2, 4]: 0.617 nM

C[C@@H]1[C@@H](C)CCC[C@@](O)(C#CCN2CCOCC2)[C@@H]2CC[C@H]2CN2C[C@@]3(CCCc4cc(Cl)ccc43)COc3ccc(cc32)C(=O)NS1(=O)=O [Example 100354, (1S,3′R,6′R,7′S,11′S,12′R)-6-chloro-7′-hydroxy-11′,12′-dimethyl-7′-(3-(4-morpholinyl)-1-propyn-1-yl)-3,4-dihydro-2H,15′H-spiro[naphthalene-1,22′-[20]oxa[13]thia[1,14]diazatetracyclo [14.7.2.0~3,6~.0~19,24~]pentacosa[16,18,24]trien]-15′-one 13′,13′-dioxide]
IC50 [1, 7]: 147 nM | IC50 [2, 6]: 0.109 nM

C[C@@H]1[C@@H](C)C/C=C/[C@@](O)(c2cncnc2)[C@@H]2CC[C@H]2CN2C[C@@]3(CCCc4cc(Cl)ccc43)COc3ccc(cc32)C(=O)NS1(=O)=O (single isomer, unassigned) [Example 100434]
IC50 [1, 7]: 482 nM | IC50 [2, 6]: 0.162 nM

— US10821115B2, “Compounds that inhibit Mcl-1 protein” (priority 2017, dated 2020)
